Data: patent publication US6489364B2, “Antiviral protease inhibitors” (priority 1997, dated 2002)
Values after ≈ are worked out from the molar mass of the structure shown. Read-outs that look alike come from different tables or passages of the source.

Columns and labels:
HIV-1 = HIV-1 infected MT4 cell culture, XTT assay; type: cell-based
Method: Compounds are also tested for HIV protease activity in cell culture. MT4 cells grown in RPMI 1640 cell culture medium including 10% fetal calf serum are infected with 10 TCID HIV-1 per 2×10^5 cells and cultured for 6 days. XTT is added and the amount of XTT formazan produced in the following 6 hours represents the number of surviving cells. Results are expressed as the ED50, that is the concentration in μg/ml of the compound of the invention which suppresses viral replication by 50%.

purified HIV proteinase = biological target: T1, purified HIV proteinase (Human immunodeficiency virus type 1 group M subtype B, UniProt P04585); assay: biochemical
T1 construct: purified HIV proteinase
Method: Representative compounds were tested for HIV protease activity in a spectrophotometric enzyme assay using the chromogenic substrate His-Lys-Ala-Arg-Val-Leu-p-nitro-Phe-Glu-Ala-Nle-Ser-amide and purified HIV proteinase. The rate of cleavage is followed by continuously registering the change in absorbance at 300 nm. […]

[1] = Human immunodeficiency virus 1, MT4, 144 h
[2] = values in parentheses, affinity constant, read-out: (Ki μM)
[3] = Human immunodeficiency virus 1, 144 h, second part of Table 1, head EC50, MT4 cells, HIV-1, 6 days, XTT, read-out: EC50

**Q.** `CNC(=O)[C@@H](NC(=O)[C@H](OCc1ccc(-c2cccc([N+](=O)[O-])c2)cc1)[C@H](O)[C@@H](O)[C@@H](OCc1ccc(-c2cccc([N+](=O)[O-])c2)cc1)C(=O)N[C@H](C(=O)NC)C(C)C)C(C)C` [Example 24, N1,N6-di[(1S)-2-methyl-1-(methylcarbamoyl)propyl]-(2R,3R,4R,5R)-2,5-di[(4-(3-nitrophenyl)benzyl)oxy]-3,4-dihydroxyhexanediamide] was tested. Which EC50 (HIV-1; [1]) did it give?
**A.** The EC50 was 0.4 µg/mL (≈ 0.467 µM).

**Q.** And the Ki (purified HIV proteinase)?
**A.** Its Ki is 1.4 nM.

**Q.** `CNC(=O)[C@@H](NC(=O)[C@H](OCc1ccc(F)cc1)[C@H](O)[C@@H](O)[C@@H](OCc1ccc(F)cc1)C(=O)N[C@H](C(=O)NC)C(C)C)C(C)C` [Example 7, N1,N6-di[(1S)-2-methyl-1-(methylcarbamoyl)propyl]-(2R,3R,4R,5R)-2,5-di[(4-fluorobenzyl)oxy]-3,4-dihydroxyhexanediamide] was tested. Which Ki (purified HIV proteinase; [2]) did it give?
**A.** Its Ki is 2.3 nM.

**Q.** With `CNC(=O)[C@@H](NC(=O)[C@H](OCc1ccc(-c2cccs2)cc1)[C@H](O)[C@@H](O)[C@@H](OCc1ccc(-c2cccs2)cc1)C(=O)N[C@H](C(=O)NC)C(C)C)C(C)C` [Example 25, N1,N6-di[(1S)-2-methyl-1-(methylcarbamoyl)propyl]-(2R,3R,4R,5R)-2,5-di[4-(2-thienyl)benzyloxy]-3,4-dihydroxyhexanediamide] as the molecule, how does the EC50 (HIV-1; [1]) read?
**A.** Its EC50 is 0.02 µg/mL (≈ 0.0257 µM).

**Q.** What about the Ki (purified HIV proteinase) of the same molecule?
**A.** The Ki was 0.17 nM.

**Q.** Which EC50 (HIV-1; [3]) does the source give for `O=C(N[C@H]1c2ccccc2C[C@H]1O)[C@@H](C[C@@H](O)[C@@H](OCc1ccccc1)C(=O)N[C@H]1c2ccccc2C[C@H]1O)OCc1ccccc1` [Example 26, N1,N6-di[(1S,2R)-2-hydroxy-2,3-dihydro-1H-1-indenyl]-(2R,3R,5R)-2,5-di(benzyloxy)-3-hydroxyhexanediamide] here?
**A.** The EC50 was 0.8 µg/mL (≈ 1.26 µM).

**Q.** What about the Ki (purified HIV proteinase; [2]) of the same molecule?
**A.** Its Ki is 0.97 nM.

**Q.** How did the EC50 (HIV-1; [1]) turn out when `CNC(=O)C(NC(=O)C(OCc1ccc(-c2ccccc2)cc1)C(O)C(O)C(OCc1ccc(-c2ccccc2)cc1)C(=O)NC(C(=O)NC)C(C)C)C(C)C` [Example 14, N1,N6-di[(1S)-2-methyl-1-(methylcarbamoylpropyl]-(2R,3R,4R,5R)-2,5-di[(4-phenylbenzyl)oxy]-3,4-dihydroxyhexanediamide] was run?
**A.** The EC50 was 0.04 µg/mL (≈ 0.0522 µM).

**Q.** And the Ki (purified HIV proteinase)?
**A.** The Ki was 0.67 nM.

**Q.** With `CNC(=O)[C@@H](NC(=O)[C@H](OCc1ccc(-c2ccsc2)cc1)[C@H](O)[C@@H](O)[C@@H](OCc1ccc(-c2ccsc2)cc1)C(=O)N[C@H](C(=O)NC)C(C)C)C(C)C` [Example 15, N1,N6-di[(1S)-2-methyl-1-(methylcarbamoyl)propyl]-(2R,3R,4R,5R)-2,5-di[4-(3-thienyl)benzyloxy]-3,4-dihydroxyhexanediamide] as the molecule, how does the EC50 (HIV-1; [1]) read?
**A.** Its EC50 is 0.03 µg/mL (≈ 0.0385 µM).

**Q.** What about the Ki (purified HIV proteinase) of the same molecule?
**A.** The Ki was 1.2 nM.

**Q.** Which EC50 (HIV-1; [3]) does the source give for `CCOC1=C(c2ccc(CO[C@@H](C(=O)N[C@H](C(=O)NC)C(C)C)[C@H](O)[C@@H](O)[C@@H](OCc3ccc(C4=C(OCC)C(=O)CCC4)cc3)C(=O)N[C@H](C(=O)NC)C(C)C)cc2)CCCC1=O` [Example 32] here?
**A.** Its EC50 is 0.2 µg/mL (≈ 0.224 µM).

**Q.** What about the Ki (purified HIV proteinase; [2]) of the same molecule?
**A.** Its Ki is 0.3 nM.

**Q.** Which results are given for `CNC(=O)[C@@H](NC(=O)[C@H](OCc1ccc(C2=C(O)C(=O)CCC2)cc1)[C@H](O)[C@@H](O)[C@@H](OCc1ccc(C2=C(O)C(=O)CCC2)cc1)C(=O)N[C@H](C(=O)NC)C(C)C)C(C)C` [Example 33]?
**A.** EC50 (HIV-1; [1]): 0.2 µg/mL (≈ 0.24 µM); Ki (purified HIV proteinase): 0.5 nM

**Q.** For `CNC(=O)C(NC(=O)C(CC(O)C(OCc1ccccc1)C(=O)NC(C(=O)NC)C(C)C)OCc1ccccc1)C(C)C` [Example 3, N1,N6-di[(1S)-2-methyl-1-(methylcarbamoyl)propyl]-(2R,3R,5R)-2,5-di(benzaloxy)-3-hydroxyhexanediamide], which IC50 (purified HIV proteinase; values printed without parentheses, concentration inhibiting enzyme performance by 50%) is on record?
**A.** Its IC50 is 4 nM.

**Q.** For `CNC(=O)C(NC(=O)C(OCc1ccccc1F)C(O)C(O)C(OCc1ccccc1F)C(=O)NC(C(=O)NC)C(C)C)C(C)C` [Example 19, N1,N6-di[(1S)-2-methyl-1-(methylcarbamoyl)propyl]-(2R,3R,4R,5R)-2,5-di[4-(2-fluorobenzyl)oxy]-3,4-dihydroxyhexanediamide], which EC50 (HIV-1; [3]) is on record?
**A.** Its EC50 is 0.8 µg/mL (≈ 1.23 µM).

**Q.** And the Ki (purified HIV proteinase; [2])?
**A.** The Ki was 0.5 nM.

**Q.** `CNC(=O)[C@@H](NC(=O)[C@H](OCc1ccccc1)[C@H](O)[C@@H](O)[C@@H](OCc1ccccc1)C(=O)N[C@H](C(=O)NC)c1ccccc1)c1ccccc1` [Example 16, N1,N6-di[(1S)-1-phenyl-1-(methylcarbamoyl)methyl]-(2R,3R,4R,5R)-2,5-di(benzyloxy)-3,4-dihydroxyhexanediamide] was tested. Which EC50 (HIV-1; [1]) did it give?
**A.** Its EC50 is 1 µg/mL (≈ 1.46 µM).

**Q.** And the Ki (purified HIV proteinase; read-out: (Ki μM))?
**A.** Its Ki is 2.3 nM.

**Q.** What does the source list for `O=C(N[C@H]1c2ccccc2C[C@H]1O)[C@H](OCc1ccc(F)cc1)[C@H](O)[C@@H](O)[C@@H](OCc1ccc(F)cc1)C(=O)N[C@H]1c2ccccc2C[C@H]1O` [Example 13, N1,N6-di[(1S,2R)-2-hydroxy-2,3-dihydro-1H-1-indenyl]-(2R,3R,4R,5R)-2,5-di(4-fluorobenzyloxy)-3,4-dihydroxyhexanediamide]?
**A.** EC50 (HIV-1; [3]): 0.2 µg/mL (≈ 0.29 µM); Ki (purified HIV proteinase; [2]): 0.07 nM

**Q.** How did the EC50 (HIV-1; [3]) turn out when `O=C(N[C@H]1c2ccccc2C[C@H]1O)[C@H](OCc1ccc(F)cc1F)[C@H](O)[C@@H](O)[C@@H](OCc1ccc(F)cc1F)C(=O)N[C@H]1c2ccccc2C[C@H]1O` [Example 21, N1,N6-di[(1S,2R)-2-hydroxy-2,3-dihydro-1H-1-indenyl]-(2R,3R,4R,5R)-2,5-di(2,4-difluorobenzyloxy)-3,4-dihydroxyhexanediamide] was run?
**A.** The EC50 was 0.1 µg/mL (≈ 0.138 µM).

**Q.** What about the Ki (purified HIV proteinase; [2]) of the same molecule?
**A.** Its Ki is 0.38 nM.

**Q.** How did the IC50 (purified HIV proteinase) turn out when `CNC(=O)[C@@H](NC(=O)[C@H](OCc1ccccc1)[C@H](O)[C@@H](O)[C@@H](OCc1ccccc1)C(=O)N[C@H](C(=O)NC)C(C)C)C(C)C` [Example 1, N1,N6-di[(1S)-2-methyl-1-(methylcarbamoyl)propyl]-(2R,3R,4R,5R)-2,5-di(benzyloxy)-3,4-dihydroxyhexanediamide] was run?
**A.** Its IC50 is 15 nM.

**Q.** Which Ki (purified HIV proteinase; [2]) does the source give for `CC(C)C(NC(=O)C(OCc1ccccc1)C(O)C(O)C(OCc1ccccc1)C(=O)NC(C(=O)NC1CC1)C(C)C)C(=O)NC1CC1` [Example 8, N1,N6-di[(1S)-2-methyl-1-(cyclopropylcarbamoyl)propyl]-(2R,3 R,4R,5R)-25-di(benzyloxy)-3,4-dihydroxyhexanediamide] here?
**A.** Its Ki is 3.4 nM.

**Q.** `O=C(NC1c2ccccc2CC1O)C(OCc1ccccc1)C(O)C(O)C(OCc1ccccc1)C(=O)NC1c2ccccc2CC1O` [Example 10, N1,N6-di[(1S,2R)-2-hydroxy-2,3-dihydro-1H-1-indenyl]-(2R,3R,4R,5R)-2.5-di(benzyloxy)-3,4-dihydroxyhexanediamide] was tested. Which Ki (purified HIV proteinase) did it give?
**A.** Its Ki is 1.6 nM.

**Q.** With `CNC(=O)[C@@H](NC(=O)[C@H](OCc1ccccc1C)[C@H](O)[C@@H](O)[C@@H](OCc1ccccc1C)C(=O)N[C@H](C(=O)NC)C(C)C)C(C)C` [Example 9, N1,N6-di[(1S)-2-methyl-1-(methylcarbamoyl)propyl]-(2R,3R,4R,5R)-2,5-di[(2-methylbenzyl)oxy]-3,4-dihydroxyhexanediamide] as the molecule, how does the Ki (purified HIV proteinase; [2]) read?
**A.** Its Ki is 3.5 nM.

**Q.** `CCC(C)[C@H](NC(=O)[C@H](OCc1ccccc1)[C@H](O)[C@@H](O)[C@@H](OCc1ccccc1)C(=O)N[C@H](C(=O)NC)C(C)CC)C(=O)NC` (stereo partly drawn) [Example 4, N1,N6-di[(1S)-2-methyl-1-(methylcarbamoyl)butyl]-(2R,3R,4R,5R)-2,5-di(benzyloxy)-3,4-dihydroxyhexanediamide] was tested. Which Ki (purified HIV proteinase; [2]) did it give?
**A.** The Ki was 9 nM.

**Q.** Which EC50 (HIV-1; second part of Table 1, head EC50, MT4 cells, HIV-1, 6 days, XTT) does the source give for `CC(C)[C@H](NC(=O)[C@H](OCc1ccccc1)[C@H](O)[C@@H](O)[C@@H](OCc1ccccc1)C(=O)N[C@H]1c2ccccc2C[C@H]1O)C(=O)NCc1ccccn1` [Example 28, N1-[(1S,2R)-2-hydroxy-2,3-dihydro-1H-1-indenyl]-N6-[(1S)-2-methyl-1-([2-pyridylmethyl]carbamoyl)propyl]-(2R,3R,4R,5R,)-2,5-di(benzyloxy)-3,4-dihydroxyhexanediamide] here?
**A.** Its EC50 is 0.2 µg/mL (≈ 0.281 µM).
